Data as given in PMC3382068 (Bioorganic & medicinal chemistry, 2011).
“Also recorded” adds a separate entry of the source. Each block holds one compound with its values, some of them ahead of it.

Tests used:
hIcmt [1] = molecular target: T1, hIcmt (Homo sapiens, UniProt O60725); test: In vitro vapor diffusion methyltransferase assay, inhibition of hIcmt; type: biochemical; conditions: for hIcmt inhibition (in words): 10 μM compound, 25 μM AFC; for Loss of inhibitory activity as compared to compound 1a: fold
[2] = system: PC3 prostate cancer cells; conditions: cited from earlier work
hIcmt [3] = molecular target: T1, hIcmt; conditions: read-out: IC50 against hIcmt; previously reported; cited from earlier work
hIcmt [4] = molecular target: T1, hIcmt; test: Kinetic mode of inhibition and KI determination
[5] = system: GFP-K-Ras in Jurkat T cells; test: Subcellular localization of GFP-K-Ras by fluorescence microscopy; type: cell-based; conditions: 0.1 μM, 24 hours
[6] = system: Erk phosphorylation in Jurkat T cells; test: Signaling assay: anti-CD-3ε dependent Erk phosphorylation; type: cell-based; conditions: 25 μM, 24 h, then anti-CD-3ε stimulation
[7] = system: Ras activation in Jurkat T cells; test: GST-RBD pull down assay of active GTP-bound Ras; type: cell-based; conditions: 25 μM, 24 h, then anti-CD-3ε stimulation

T1 sequence (O60725 whole entry, the tested form may be a part): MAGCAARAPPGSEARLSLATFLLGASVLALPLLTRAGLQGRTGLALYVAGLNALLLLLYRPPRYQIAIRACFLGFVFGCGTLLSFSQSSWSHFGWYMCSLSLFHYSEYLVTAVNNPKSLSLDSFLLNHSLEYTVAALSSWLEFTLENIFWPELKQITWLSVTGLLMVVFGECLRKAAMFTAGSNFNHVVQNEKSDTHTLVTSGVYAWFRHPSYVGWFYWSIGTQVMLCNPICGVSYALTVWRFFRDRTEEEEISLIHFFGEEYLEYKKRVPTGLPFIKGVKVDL

hIcmt inhibition (in words) (hIcmt [1]): significant loss of hIcmt inhibition
Compound: CC(C)=CCC/C(C)=C/CC/C(C)=C/CC/C(C)=C/CSC[C@H](NC(=O)c1ccccc1Oc1ccccc1)C(=O)O [Compound 19, (R)-2-(2-phenoxybenzamido)-3-(((2E,6E,10E)-3,7,11,15-tetramethylhexadeca-2,6,10,14-tetraen-1-yl)thio)propanoic acid]

Loss of inhibitory activity as compared to compound 1a (hIcmt [1]): roughly four-fold
Compound: CC(C)=CCC/C(C)=C/CC/C(C)=C/CSC[C@H](NC(=O)c1ccccc1Sc1ccccc1)C(=O)O [Compound 2d, (R)-2-(2-(phenylthio)benzamido)-3-(((2E,6E)-3,7,11-trimethyldodeca-2,6,10-trien-1-yl)thio)propanoic acid]

Loss of inhibitory activity as compared to compound 1a (hIcmt [1]): roughly four-fold
Compound: CC(C)=CCC/C(C)=C/CC/C(C)=C/CSC[C@H](NC(=O)c1ccccc1Cc1ccccc1)C(=O)O [Compound 2c, (R)-2-(2-benzylbenzamido)-3-(((2E,6E)-3,7,11-trimethyldodeca-2,6,10-trien-1-yl)thio)propanoic acid]

Ki (hIcmt [4]): 0.5 ± 0.07 µM
α value (hIcmt [4]; mixed-type inhibition, competitive component dominated): greater than 1
Compound: CC(C)=CC/C(=C/CSC[C@H](NC(=O)c1ccccc1Oc1ccccc1)C(=O)O)CCc1ccc(-c2ccccc2)cc1 [Compound 1b, N-2-Phenoxybenzoyl-S-3-(3-methyl-but-2-enyl)-5-(4-biphenyl)pent-2-enyl-L-cysteine]
Mode of inhibition (hIcmt [4]; AFC varied, inhibitor concentration fixed): mixed-mode inhibition; also recorded: mixed-type inhibition
Prevention of GFP-K-Ras membrane localization [5]: approximately 35%
Decrease of Erk activation compared to the control [6]: approximately three-fold
Ras activation [7]: inhibited Ras activation significantly

The remaining lines, values behind:

Compound: CC(C)=CCC/C(C)=C/CC/C(C)=C/CSC[C@@H](C(=O)O)N(C)C(=O)c1ccccc1Oc1ccccc1 [Compound 20, (R)-2-(N-methyl-2-phenoxybenzamido)-3-(((2E,6E)-3,7,11-trimethyldodeca-2,6,10-trien-1-yl)thio)propanoic acid]
hIcmt inhibition (in words) (hIcmt [1]): equivalent to our previous lead, 1a, in terms of percent inhibition

Compound: CCCCCCCCn1cc(CC(N)=O)c2cc(-c3cccc(C)c3)ccc21 [Cysmethynil]
Effect on PC3 prostate cancer cells [2]: induction of autophagic cell death

Compound: anthranilic farnesylcysteine [anthranilic acid analog]
IC50 (hIcmt [3]): 7.1 µM

Compound: CCCCCCCCCCCSC[C@H](NC(=O)c1ccccc1Oc1ccccc1)C(=O)O [Compound 21, ((R)-2-(2-phenoxybenzamido)-3-(undecylthio)propanoic acid)]
hIcmt inhibition (in words) (hIcmt [1]): particularly poor inhibitor of hIcmt
